Laboratory results: patent US7851589B2, “Polypeptide derived from the ryanodine receptor that inhibits calcium leakage” (Otsuka Pharmaceutical Co., Ltd., priority 2004, dated 2010)

Key:
ryanodine receptor = assay: FK506-induced Ca2+ leakage in sarcoplasmic reticulum derived from canine myocardium (fluo 3 indicator); format: biochemical; conditions: for Ca2+ leakage inhibitory effect: 30 μM FK506 + 1 μM thapsigargin, value 20 seconds after addition, canine myocardial sarcoplasmic reticulum; for Ca2+ leakage inhibitory effect / Ca2+ leakage inhibitory activity compared with R2P: polypeptide 0.1, 0.3 or 1.0 μM
Method: Ca^2+ leakage inhibitory activity was measured through the method of Yano, M., et al. [Yano, et al., Circulation, 102, 2131-2136 (2000)].
Firstly, sarcoplasmic reticulum was prepared from canine myocardium through the method of Kranias, et al. [Kranias E., et al., Biochim. Biophys. Acta., 709, 28-37 (1982)].
Subsequently, the sarcoplasmic reticulum (0.2 mg/mL) was incubated in 0.5 mL of 20 mM MOPS buffer (pH 6.8) containing […] potassium gluconate, 0.2 mM EGTA-calcium buffer (free calcium: Ca^2+=0.3 μM), and 10 mM NaN3.
After the fluorescence value was maintained constant, 0.5 mM ATP (product of Sigma) and 0.5 mM magnesium chloride were added to the resultant mixture, to thereby initiate Ca^2+ uptake. The time course of Ca^2+ uptake was measured. Ca^2+ uptake was measured by means of fluo 3 (product of Molecular Probes) serving as a Ca^2+ indicator, and the fluorescence intensity at an excitation wavelength of 480 nm and an emission wavelength of 530 nm was measured by means of a fluorometer.
After Ca^2+ uptake reached a plateau, 1 μM thapsigargin (product of Wako Pure Chemical Industries, Ltd.) was added to thereby inhibit sarco(endo)plasmic reticulum Ca-ATPase (SERCA) activity for elimination of the influence of SERCA. The difference between the fluorescence value before addition of ATP and the fluorescence value at the time of completion of ATP-induced active Ca^2+ uptake (i.e., the fluorescence value at the time when Ca^2+ uptake reached a plateau) was taken as 100%.
Ca^2+ leakage induced by simultaneous addition of thapsigargin and 30 μM FK506 (product of Fujisawa Pharmaceutical Co., Ltd,), which was regarded as a control of Ca^2+ leakage induction, was measured by means of a Ca^2+ indicator.
A polypeptide obtained in (a) above (concentration: 0.1 μM, 0.3 μM, or 1.0 μM) and FK506 (30 μM/L) were added simultaneously with administration of thapsigargin, and the effect of inhibiting the thus-induced Ca^2+ leakage via ryanodine receptor was measured by means of a Ca^2+ indicator in a manner similar to that described above.
In each of these figures, the vertical axis corresponds to the value as measured 20 seconds after addition of thapsigargin, FK506, and a polypeptide. The value is the average of data of measurement performed twice or three times.

[1] = system: ischemic reperfusion injury; conditions: Hypertens. Res., 25: 303-9 (2002); cited from earlier work
[2] = system: tachycardia-induced canine heart failure model; conditions: cited from earlier work
normal canine model = conditions: cited from earlier work
RyR2 = RyR2 (Canis lupus familiaris, UniProt A0A8I3MT21); conditions: cited from earlier work
[3] = system: neuron death during cerebral ischemia; conditions: Neurosci. Lett., 158: 105-108 (1993); cited from earlier work

Chain of RyR2 (A0A8I3MT21 1-4967): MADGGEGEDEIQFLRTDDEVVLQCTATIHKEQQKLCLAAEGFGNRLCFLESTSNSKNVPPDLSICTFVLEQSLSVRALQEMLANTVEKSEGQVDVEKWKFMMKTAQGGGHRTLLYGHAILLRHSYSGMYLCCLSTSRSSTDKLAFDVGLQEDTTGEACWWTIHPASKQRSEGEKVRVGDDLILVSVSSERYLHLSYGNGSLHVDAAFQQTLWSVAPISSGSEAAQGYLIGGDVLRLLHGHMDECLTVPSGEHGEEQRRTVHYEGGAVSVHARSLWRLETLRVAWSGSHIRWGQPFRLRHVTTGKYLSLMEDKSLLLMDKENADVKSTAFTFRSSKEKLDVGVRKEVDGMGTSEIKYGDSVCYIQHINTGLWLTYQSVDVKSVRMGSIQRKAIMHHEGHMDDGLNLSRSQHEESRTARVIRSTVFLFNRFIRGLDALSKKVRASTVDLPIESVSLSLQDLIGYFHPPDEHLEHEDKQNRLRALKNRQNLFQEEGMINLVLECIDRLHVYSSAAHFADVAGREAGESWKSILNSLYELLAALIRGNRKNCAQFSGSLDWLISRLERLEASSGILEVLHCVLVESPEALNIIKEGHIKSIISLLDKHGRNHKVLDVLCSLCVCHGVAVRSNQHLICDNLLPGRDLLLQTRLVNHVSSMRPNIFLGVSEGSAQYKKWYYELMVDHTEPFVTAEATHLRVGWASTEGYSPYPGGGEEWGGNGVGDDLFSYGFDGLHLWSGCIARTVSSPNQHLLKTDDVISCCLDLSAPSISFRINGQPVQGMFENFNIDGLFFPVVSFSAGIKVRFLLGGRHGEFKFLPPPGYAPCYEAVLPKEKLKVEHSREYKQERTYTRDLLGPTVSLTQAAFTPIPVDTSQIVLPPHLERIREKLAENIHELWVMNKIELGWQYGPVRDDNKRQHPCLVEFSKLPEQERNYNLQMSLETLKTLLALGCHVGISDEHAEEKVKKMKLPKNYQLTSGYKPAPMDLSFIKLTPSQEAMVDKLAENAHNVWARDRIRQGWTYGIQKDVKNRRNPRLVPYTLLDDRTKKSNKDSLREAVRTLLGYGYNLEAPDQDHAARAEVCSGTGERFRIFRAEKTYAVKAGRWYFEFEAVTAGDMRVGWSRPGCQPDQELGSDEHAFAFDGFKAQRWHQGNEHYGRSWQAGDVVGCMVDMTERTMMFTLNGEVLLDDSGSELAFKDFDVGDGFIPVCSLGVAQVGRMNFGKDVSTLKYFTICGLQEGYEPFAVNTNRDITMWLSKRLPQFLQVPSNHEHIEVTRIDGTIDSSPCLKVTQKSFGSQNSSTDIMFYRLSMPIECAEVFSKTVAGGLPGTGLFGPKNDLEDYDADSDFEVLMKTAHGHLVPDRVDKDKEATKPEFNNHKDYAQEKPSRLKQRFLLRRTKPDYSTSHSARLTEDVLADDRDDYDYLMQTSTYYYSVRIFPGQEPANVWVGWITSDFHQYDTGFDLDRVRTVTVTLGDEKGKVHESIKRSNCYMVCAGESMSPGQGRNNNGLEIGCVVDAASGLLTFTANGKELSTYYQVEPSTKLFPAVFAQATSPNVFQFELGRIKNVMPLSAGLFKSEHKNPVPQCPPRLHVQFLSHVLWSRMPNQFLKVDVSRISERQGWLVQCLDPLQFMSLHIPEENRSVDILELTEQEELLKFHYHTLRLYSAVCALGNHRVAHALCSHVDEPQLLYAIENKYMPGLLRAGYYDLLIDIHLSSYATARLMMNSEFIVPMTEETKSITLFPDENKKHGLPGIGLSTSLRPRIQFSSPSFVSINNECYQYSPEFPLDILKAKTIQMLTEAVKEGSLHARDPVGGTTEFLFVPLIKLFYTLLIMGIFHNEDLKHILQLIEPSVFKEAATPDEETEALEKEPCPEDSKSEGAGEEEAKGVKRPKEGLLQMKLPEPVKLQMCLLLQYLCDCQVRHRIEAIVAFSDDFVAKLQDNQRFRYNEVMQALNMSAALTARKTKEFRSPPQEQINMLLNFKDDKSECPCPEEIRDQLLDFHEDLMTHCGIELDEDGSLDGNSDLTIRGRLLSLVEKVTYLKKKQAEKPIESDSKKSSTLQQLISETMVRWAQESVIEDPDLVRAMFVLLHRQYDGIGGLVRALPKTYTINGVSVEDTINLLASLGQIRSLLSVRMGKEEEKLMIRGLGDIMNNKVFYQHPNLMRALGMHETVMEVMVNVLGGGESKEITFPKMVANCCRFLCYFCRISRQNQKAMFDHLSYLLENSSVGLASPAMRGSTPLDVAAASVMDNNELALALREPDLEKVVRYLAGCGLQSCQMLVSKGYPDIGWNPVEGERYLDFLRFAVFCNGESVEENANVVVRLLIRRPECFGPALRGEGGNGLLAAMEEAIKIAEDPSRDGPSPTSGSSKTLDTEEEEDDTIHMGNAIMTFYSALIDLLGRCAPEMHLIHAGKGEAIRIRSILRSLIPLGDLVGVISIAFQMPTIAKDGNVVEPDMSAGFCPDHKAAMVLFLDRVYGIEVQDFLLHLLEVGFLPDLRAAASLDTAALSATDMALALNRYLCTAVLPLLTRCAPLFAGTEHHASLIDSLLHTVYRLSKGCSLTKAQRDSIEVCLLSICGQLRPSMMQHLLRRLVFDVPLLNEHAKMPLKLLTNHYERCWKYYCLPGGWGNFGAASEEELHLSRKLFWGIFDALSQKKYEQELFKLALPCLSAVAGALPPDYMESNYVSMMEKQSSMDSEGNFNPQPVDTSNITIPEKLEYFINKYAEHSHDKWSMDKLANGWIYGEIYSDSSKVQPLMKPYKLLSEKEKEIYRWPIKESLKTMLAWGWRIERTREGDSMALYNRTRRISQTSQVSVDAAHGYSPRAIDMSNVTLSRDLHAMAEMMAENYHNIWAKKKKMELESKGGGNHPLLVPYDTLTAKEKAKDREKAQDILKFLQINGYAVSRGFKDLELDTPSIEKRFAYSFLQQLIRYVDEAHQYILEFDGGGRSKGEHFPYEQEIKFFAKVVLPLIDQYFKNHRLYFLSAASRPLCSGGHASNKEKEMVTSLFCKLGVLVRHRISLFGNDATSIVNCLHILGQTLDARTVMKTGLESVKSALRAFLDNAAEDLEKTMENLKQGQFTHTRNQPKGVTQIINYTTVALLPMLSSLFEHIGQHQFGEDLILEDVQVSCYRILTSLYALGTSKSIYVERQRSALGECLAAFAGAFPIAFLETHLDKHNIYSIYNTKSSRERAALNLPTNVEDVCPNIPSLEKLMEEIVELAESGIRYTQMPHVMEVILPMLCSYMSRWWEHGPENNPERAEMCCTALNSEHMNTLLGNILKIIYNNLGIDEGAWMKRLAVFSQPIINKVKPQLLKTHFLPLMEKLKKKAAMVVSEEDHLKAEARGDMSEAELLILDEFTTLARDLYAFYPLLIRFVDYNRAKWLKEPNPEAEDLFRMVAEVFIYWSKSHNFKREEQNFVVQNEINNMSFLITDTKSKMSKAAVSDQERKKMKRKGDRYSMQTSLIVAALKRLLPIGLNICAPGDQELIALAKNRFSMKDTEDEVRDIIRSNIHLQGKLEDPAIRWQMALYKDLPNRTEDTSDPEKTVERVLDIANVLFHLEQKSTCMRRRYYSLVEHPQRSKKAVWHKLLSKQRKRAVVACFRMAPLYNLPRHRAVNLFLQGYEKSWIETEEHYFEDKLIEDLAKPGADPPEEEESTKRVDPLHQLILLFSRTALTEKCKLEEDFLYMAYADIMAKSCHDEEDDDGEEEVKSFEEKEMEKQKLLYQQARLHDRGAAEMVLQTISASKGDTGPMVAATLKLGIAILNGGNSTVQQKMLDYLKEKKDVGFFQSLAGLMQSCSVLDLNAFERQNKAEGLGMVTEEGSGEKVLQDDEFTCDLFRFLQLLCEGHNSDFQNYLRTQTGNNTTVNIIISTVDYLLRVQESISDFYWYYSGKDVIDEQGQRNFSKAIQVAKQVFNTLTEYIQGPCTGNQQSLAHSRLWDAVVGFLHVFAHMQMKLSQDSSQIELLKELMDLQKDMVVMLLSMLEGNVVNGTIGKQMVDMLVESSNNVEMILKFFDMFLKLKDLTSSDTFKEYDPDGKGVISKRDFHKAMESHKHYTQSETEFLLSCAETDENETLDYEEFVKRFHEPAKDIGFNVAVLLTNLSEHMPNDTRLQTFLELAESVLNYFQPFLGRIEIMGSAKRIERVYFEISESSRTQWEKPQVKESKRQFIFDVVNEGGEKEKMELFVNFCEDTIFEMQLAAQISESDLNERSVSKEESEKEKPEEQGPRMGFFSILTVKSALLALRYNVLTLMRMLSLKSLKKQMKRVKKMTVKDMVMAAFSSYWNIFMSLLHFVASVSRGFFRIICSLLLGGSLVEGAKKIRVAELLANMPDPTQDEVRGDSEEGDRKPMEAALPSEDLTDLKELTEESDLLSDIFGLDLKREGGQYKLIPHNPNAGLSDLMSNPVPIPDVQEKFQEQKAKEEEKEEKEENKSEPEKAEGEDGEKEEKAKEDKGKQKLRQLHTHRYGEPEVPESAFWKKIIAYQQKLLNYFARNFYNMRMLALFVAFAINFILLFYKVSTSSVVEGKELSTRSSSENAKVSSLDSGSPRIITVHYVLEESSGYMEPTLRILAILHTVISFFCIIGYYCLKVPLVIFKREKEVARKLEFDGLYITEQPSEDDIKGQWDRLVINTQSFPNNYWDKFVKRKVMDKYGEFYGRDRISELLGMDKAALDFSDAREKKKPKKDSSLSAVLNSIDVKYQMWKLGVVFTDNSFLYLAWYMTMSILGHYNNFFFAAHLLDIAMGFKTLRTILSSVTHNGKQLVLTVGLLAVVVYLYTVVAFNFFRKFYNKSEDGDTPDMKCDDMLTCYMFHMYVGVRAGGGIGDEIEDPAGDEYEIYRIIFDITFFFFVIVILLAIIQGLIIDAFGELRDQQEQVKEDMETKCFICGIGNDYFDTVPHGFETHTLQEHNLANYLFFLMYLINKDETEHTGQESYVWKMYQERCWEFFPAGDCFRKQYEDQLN

Molecule	Ca2+ leakage inhibitory effect (ryanodine receptor)	Ca2+ leakage inhibitory activity compared with R2P (ryanodine receptor; FK506-induced leakage)	other results
RP1-20: hRyR2 amino acid Nos. 2114-2133; deletion of 16 amino acids at the C-terminal of R2P (EDTINLLASLGQIRSLLSVR)	exhibit Ca^2+ leakage inhibitory effect in a concentration-dependent manner	lower than that of R2P	
RP1-25: hRyR2 amino acid Nos. 2114-2138; deletion of 11 amino acids at the C-terminal of R2P (EDTINLLASLGQIRSLLSVRMGKEE)	exhibit Ca^2+ leakage inhibitory effect in a concentration-dependent manner	lower than that of R2P	
R2P: 36 amino acids corresponding to positions 2114 to 2149 of human ryanodine receptor type 2 (hRyR2) (EDTINLLASLGQIRSLLSVRMGKEEEKLMIRGLGDI)	inhibits Ca^2+ leakage in a concentration-dependent manner		Ca2+ leakage inhibitory effect compared with control JTV519 (ryanodine receptor; 1.0 μM polypeptide vs 0.3 μM JTV519, FK506-induced leakage): comparable to that of 0.3 μM JTV519
SEQ ID NO: 14: hRyR2 amino acid Nos. 2086-2113 (VLLHRQYDGIGGLVRALPKTYTINGVSV)	having no Ca^2+ leakage inhibitory effect		
COc1ccc2c(c1)CN(C(=O)CCN1CCC(Cc3ccccc3)CC1)CCS2 [JTV-519]			Effect on ischemic reperfusion injury [1]: effective for ischemic reperfusion injury; Effect on cardiac function [2]: exhibit the effect of improving cardiac function; Effect on cardiac function (normal canine model): exhibit no effect on cardiac function; Correction of abnormal Ca2+ leakage via RyR2 (RyR2; Non-Patent Document 9): corrects abnormal Ca^2+ leakage via RyR2; Inhibition of Ca2+ leakage from the sarcoplasmic reticulum of failing myocardium (RyR2; known property of the control): inhibit Ca^2+ leakage from the sarcoplasmic reticulum of failing myocardium in a concentration-dependent manner
O=C1CN(/N=C/c2ccc(-c3ccc([N+](=O)[O-])cc3)o2)C(O)=N1 [dantrolene]			Inhibition of neuron death during cerebral ischemia [3]: inhibit neuron death during cerebral ischemia
RP13-32: hRyR2 amino acid Nos. 2126-2145; deletion of 12 N-terminal and four C-terminal amino acids of R2P (IRSLLSVRMGKEEEKLMIRG)	exhibit Ca^2+ leakage inhibitory effect in a concentration-dependent manner	lower than that of R2P	
MSV-RP2: M+2112-2149; addition of methionine, serine and valine to the N-terminal of R2P (MSVEDTINLLASLGQIRSLLSVRMGKEEEKLMIRGLGDI)	exhibit Ca^2+ leakage inhibitory effect in a concentration-dependent manner	lower than that of R2P	
RP17-36: hRyR2 amino acid Nos. 2130-2149; deletion of 16 amino acids at the N-terminal of R2P (LSVRMGKEEEKLMIRGLGDI)	exhibit Ca^2+ leakage inhibitory effect in a concentration-dependent manner	lower than that of R2P	
R2JF: hRyR2 amino acid Nos. 2086-2133; SEQ ID NO: 14 peptide introduced to the N-terminal of RP1-20 (VLLHRQYDGIGGLVRALPKTYTINGVSVEDTINLLASLGQIRSLLSVR)	exhibit no Ca^2+ leakage inhibitory effect		
RP1-30: hRyR2 amino acid Nos. 2114-2143; deletion of six amino acids at the C-terminal of R2P (EDTINLLASLGQIRSLLSVRMGKEEEKLMI)	exhibit Ca^2+ leakage inhibitory effect in a concentration-dependent manner	lower than that of R2P	
